PMC12655351, “Synthesis and Anticancer Activity Evaluation of New 5-((5-Nitrofuran-2-yl)allylidene)-2-thioxo-4-thiazolidinones” (Pharmaceuticals, 2025)

What was measured:
[1] = system: Bax protein in MDA-MB-231 cells; experiment: anti-Bax antibody flow cytometry; format: cell-based, human; details: MDA-MB-231, concentration not stated (5 or 10 µM), 24 h
Method: (§1) The effect of the tested compounds on the intrinsic mitochondrial pathway of programmed cell death was further assessed. For this purpose, the concentration of the proapoptotic Bax protein from the Bcl-2 family was examined. The concentration of this protein was analyzed in breast cancer cells after treatment with novel compounds at concentrations of 1 and 5 µM for the MCF-7 line and 5 and 10 µM for the MDA-MB-231 line.
(§2) An anti-Bax FITC-conjugated antibody was applied to evaluate the effect of tested compounds on the concentration of Bax protein in this experiment. First, MCF-7 and MDA-MB-231 cells were seeded into 6-well plates at 5 × 10^5 cells per well. Test compounds 2b, 12b, and 14b were then added at concentrations of 1 and 5 µM and 5 and 10 µM for MCF-7 and MDA-MB-231, respectively. The concentration of doxorubicin as a reference compound was 1 and 5 µM for both lines. After 24 h of incubation, cells were harvested, centrifuged, washed with 1 mL of PBS, and then fixed with 4% paraformaldehyde for 15 min at RT. After removal of the paraformaldehyde, cells were washed with PBS, then resuspended in 0.5 mL of cold 90% methanol, and frozen at −20 °C. […] The prepared samples were read immediately using the BD FACS Canto II flow cytometer (Becton Dickinson Biosciences, San Jose, CA, USA).

[2] = system: caspase-9 in MDA-MB-231 cells; experiment: FLICA caspase-9 flow cytometry; format: cell-based, human; details: MDA-MB-231, 24 h, concentration not given
Method: To further analyze the compounds’ effects on the intrinsic pathway of the process of programmed cell death, it was decided to assess the expression of initiator caspase-9 on MCF-7 and MDA-MB-231 cell lines after 24 h of treatment using the flow cytometry method. Caspase-9 is an initiator caspase that directly activates executive caspase-3; as such, it has a significant effect on apoptosis. […] For the MDA-MB-231 line, the results were even more prominent, with every tested compound and concentration displaying a notable increase in cells with active caspase-9.
To determine the effects of the novel compounds on the caspase-9 activity, the FLICA Caspase-9 Assay Kit was applied (ImmunoChemistry Technologies, Bloomington, MN, USA). MCF-7 and MDA-MB-231 cells were seeded on 6-well plates (5 × 10^5 cells per well) and incubated for 24 h. Next, they were treated with tested compounds 2b, 12b, and 14b in a concentration of 1 and 5 µM for the MCF-7 cell line and 5 and 10 µM for the MDA-MB-231 cell line and the reference drug, doxorubicin hydrochloride, in a concentration of 1 and 5 µM for both lines for 24 h. […] Prepared samples were evaluated by a BD FACSCanto II flow cytometer (Becton Dickinson Biosciences, San Jose, CA, USA). For each sample, 1 × 10^4 events were analyzed. […]

[3] = system: Bax protein in MCF-7 cells; experiment: anti-Bax antibody flow cytometry; format: cell-based, human; details: MCF-7, 5 μM, 24 h
Method: as §1, §2

[4] = system: mitochondrial membrane potential (ΔΨm) of MDA-MB-231 breast cancer cells; experiment: JC-1 flow cytometry; format: cell-based, human; details: 24 h
Method: This method involves marking cells with fully functional mitochondria with red fluorescence due to the accumulation of the dye in hyperpolarized mitochondrial membrane. In case of a damaged membrane, the dye decomposes into monomers, emitting green fluorescence. […] For MDA-MB-231 cells, the values were as follows: 4.25% for 5 μM and 20.95% for 10 μM concentration. The obtained results signify the compound’s capability to decrease mitochondrial potential on both cell lines at a higher concentration (Figure 6).
The mitochondrial membrane potential (ΔΨm) was analyzed by using the JC-1 MitoScreen kit (BD Biosciences, San Diego, CA, USA). The tested compounds and reference drug were used in 1 and 5 µM concentrations on the MCF-7 cell line and 5 and 10 µM on the MDA-MB-231 cell line. After 24 h of incubation with the tested compounds, the assay was performed as described in the literature. The assay was performed using a flow cytometer (BD FACSCanto II, Becton Dickinson Biosciences Systems, San Jose, CA, USA), and results were obtained using FACSDiva software (version 6.1.3, BD Biosciences Systems, San Jose, CA, USA).

M14 = details: human, 48 h
[5] = system: cytochrome C in MCF-7 cells; experiment: cytochrome C ELISA; format: cell-based, human; details: MCF-7, 5 μM, 24 h
Method: (§3) The influence of the examined compounds on the level of cytochrome C, one of the crucial proteins of the intrinsic pathway of programmed cell death, was assessed. This protein is released into the cytoplasm from the mitochondrial intermembrane space as a result of the decrease in mitochondrial membrane potential. […] The most significant result was reported for compound 14b at a concentration of 5 μM in the MCF-7 cell line and 10 µM in the MDA-MB-231 cell line, where the concentration of cytochrome C was 9.54 ng/mL and 15.26 ng/mL, respectively (Figure 10).
(§4) Using a SimpleStep ELISA kit (Abcam, Cambridge, UK), we determined the levels of cytochrome C and caspase-3 in cells’ lysates with 2b, 12b, and 14b (1 and 5 μM for the MCF-7 cell line and 5 and 10 μM for the MDA-MB-231) and doxorubicin in concentrations of 1 and 5 μM for both lines after 24 h incubation. Assays were performed according to the manufacturer’s protocols.

[6] = system: cytochrome C in MDA-MB-231 cells; experiment: cytochrome C ELISA; format: cell-based, human; details: MDA-MB-231, 10 μM, 24 h
Method: as §3, §4

caspase-3 in MCF-7 cells = experiment: caspase-3 ELISA; format: cell-based, human; details: MCF-7, 1 μM, 24 h
Method: To confirm the activity of the caspase pathway, an effector caspase-3 was assayed on MCF-7 and MDA-MB-231 cell lines after 24 h of treatment using the ELISA method. Novel 4-thiazolidinone derivatives were tested in concentrations of 1 and 5 μM for the MCF-7 cell line and 5 and 10 μM for the MDA-MB-231 cell line.
as §4

Row | SMILES | Bax-positive cell population [1] [%] | cells with active caspase-9 [2] [%] | Bax-positive cell population [3] [%] | Decreased Δψ (decrease in mitochondrial potential) ([4]; MDA-MB-231, 5 μM) [%] | Decreased Δψ (decrease in mitochondrial potential) ([4]; MDA-MB-231, 10 μM) [%] | CC50 (M14) [µM] | concentration of cytochrome C [5] [ng/mL] | concentration of cytochrome C [6] [ng/mL] | change of caspase-3 concentration (caspase-3 in MCF-7 cells)
1 | CC(C(=O)O)N1C(=O)/C(=C/C=C/c2ccc([N+](=O)[O-])o2)SC1=S (stereo not drawn) [2b, 2-((Z)-5-((E)-3-(5-Nitrofuran-2-yl)allylidene)-4-oxo-2-thioxothiazolidin-3-yl)propanoic acid] | 26.33 | 83.95 | – | – | – | – | – | – | –
2 | O=C(O)CCCCCN1C(=O)/C(=C/C=C/c2ccc([N+](=O)[O-])o2)SC1=S [14b, 6-((Z)-5-((E)-3-(5-nitrofuran-2-yl)allylidene)-4-oxo-2-thioxothiazolidin-3-yl)hexanoic acid] | – | – | 14.67 | 4.25 | 20.95 | 3.23 | 9.54 | 15.26 | statistically significant result
